Source: the NIST ThermoML archive (doi:10.1016/j.jct.2004.06.009)

Experiment: molar heat capacity at constant pressure
Settings: 101.33 kPa, Crystal 2

CC12CC3CC(C1)CC(C)(C3)C2 [1,3-dimethyladamantane]
Settings | molar heat capacity at constant pressure [J/K/mol]
8.24 K | 2.062
8.72 K | 2.425
9.2 K | 2.838
9.68 K | 3.291
10.16 K | 3.758
10.73 K | 4.336
11.38 K | 5.1
12.04 K | 5.875
12.71 K | 6.75
13.36 K | 7.626
14.03 K | 8.543
14.69 K | 9.462
15.35 K | 10.41
16.02 K | 11.41
16.68 K | 12.45
17.35 K | 13.38
18.02 K | 14.36
18.7 K | 15.27
19.36 K | 16.17
20.03 K | 17.19
20.92 K | 18.43
22.01 K | 19.87
23.09 K | 21.29
24.18 K | 22.59
25.26 K | 23.98
26.35 K | 25.2
27.44 K | 26.35
30.7 K | 29.56
31.79 K | 30.56
32.87 K | 31.44
33.96 K | 32.41
35.04 K | 33.24
36.12 K | 34.11
37.2 K | 34.83
38.29 K | 35.57
39.37 K | 36.35
40.44 K | 37.09
41.52 K | 37.79
42.59 K | 38.45
43.67 K | 39.15
44.74 K | 39.94
45.82 K | 40.58
46.91 K | 41.26
49.08 K | 42.53
50.15 K | 43.17
51.21 K | 43.97
52.28 K | 44.55
53.34 K | 45.28
54.4 K | 45.93
55.46 K | 46.84
56.52 K | 47.67
58.46 K | 49.49
60.51 K | 51.1
62.53 K | 52.46
63 K | 52.93
63.91 K | 53.57
64.83 K | 54.06
65.75 K | 54.71
66.66 K | 55.08
67.58 K | 55.66
68.49 K | 56.24
69.41 K | 57.05
71.4 K | 57.87
73.43 K | 58.84
75.49 K | 59.92
77.45 K | 60.94
79.6 K | 62.15
81.55 K | 63.11
82.51 K | 63.18
83.54 K | 64.04
84.58 K | 64.38
85.62 K | 65.28
86.66 K | 66.25
87.69 K | 66.5
88.73 K | 67.15
89.76 K | 68.17
90.79 K | 68.78
91.82 K | 69.62
92.85 K | 70.65
93.88 K | 71.07
94.91 K | 71.83
95.93 K | 72.84
96.96 K | 73.52
97.98 K | 74.02
99.01 K | 74.65
100.04 K | 75.78
101.06 K | 77.14
102.08 K | 77.29
103.1 K | 78.16
104.13 K | 78.65
105.15 K | 79.24
106.17 K | 79.77
107.18 K | 80.75
108.2 K | 81.19
109.21 K | 82.31
110.22 K | 83.3
111.24 K | 83.76
112.25 K | 84.74
113.26 K | 85.56
114.27 K | 86.06
115.29 K | 86.71
116.3 K | 87.61
117.31 K | 88.53
118.32 K | 89.31
119.33 K | 90.06
120.34 K | 90.8
121.35 K | 91.66
122.36 K | 92.56
123.36 K | 93.09
124.37 K | 94.23
125.38 K | 94.72
126.39 K | 95.77
127.4 K | 96.32
128.4 K | 97.15
129.4 K | 97.61
130.4 K | 98.84
131.41 K | 99.23
132.41 K | 99.74
133.41 K | 100.92
135.41 K | 102.12
136.41 K | 102.85
137.41 K | 103.66
138.41 K | 104.15
139.41 K | 105.02
140.41 K | 106
141.4 K | 106.56
142.4 K | 107.72
143.4 K | 107.89
144.4 K | 108.44
145.37 K | 109.47
146.37 K | 110.32
147.36 K | 111.05
148.36 K | 112.04
149.35 K | 112.85
150.34 K | 113.58
151.33 K | 114.44
153.32 K | 115.43
154.31 K | 116.66
155.3 K | 117.21
156.29 K | 118.03
157.28 K | 118.57
158.26 K | 119.55
159.25 K | 119.81
160.24 K | 120.34
161.21 K | 122.14
162.2 K | 123.06
163.18 K | 123.69
